The numbers were not newly measured in patent US8197866B1, “Herbal treatment for diabetes mellitus, type II” (priority 2009, dated 2012), which cites them from elsewhere.

For data set [1], the system named is TPA-mediated tumor promotion.
In data set [2] the test system is streptozocin-induced diabetes.

Consider `O=c1cc(-c2ccc(O)cc2)oc2cc(O)cc(O)c12` [apigenin], for which the “effect on TPA-mediated tumor promotion” value in data set [1] is “inhibitory effect”.

Turning to `C[C@@H]1O[C@@H](OC[C@H]2O[C@@H](Oc3cc(O)cc4oc(-c5ccc(O)c(O)c5)cc(=O)c34)[C@H](O)[C@@H](O)[C@@H]2O)[C@H](O)[C@H](O)[C@H]1O` [luteolin 5-rutinoside], the anti-diabetic activity entry in data set [2] is “marked anti-diabetic activity”.
